Laboratory results taken from patent US9234006B2, “Compounds” (Novacta Biosystems Limited, priority 2011, dated 2016).
Where a name gives a salt, the structure may show the parent alone. Where a SMILES comes first, the peptide text is derived from it. Bridges are numbered along the chain shown (N, C = ends). [ ]: non-standard residue; d: D form. The star is where a group is joined. ξ: configuration not given here. Thr(3ξ) = CC(O)[C@H](N)C(=O)O; Dab = NCC[C@H](N)C(=O)O; X1 = CCCCCCC(O)C(=O)*; GABA = NCCCC(=O)O

Assays:
E. coli ATCC700928 = experiment: MIC susceptibility testing, broth microdilution in CaMHB; type: cell-based, Escherichia coli
Method in brief: (§1)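 Assays used cation-adjusted Mueller-Hinton broth, run in duplicate. Bacteria were taken from an overnight culture (37° C, 250 rpm, 18-20 hours), diluted 100-fold, grown to OD600 0.2-0.3, then diluted 100-fold again for inoculation.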

E. coli NCTC9001 = experiment: as above; type: cell-based, Escherichia coli
Method in brief: as §1

E. coli ATCC25922 = experiment: as above; type: cell-based, Escherichia coli
Method in brief: as §1

E. coli NCTC12900 = experiment: as above; type: cell-based, Escherichia coli
Method in brief: as §1

A. baumannii ATCC19606 = experiment: as above; type: cell-based, Acinetobacter baumannii
Method in brief: as §1

A. baumannii NCTC7844 = experiment: as above; type: cell-based, Acinetobacter baumannii
Method in brief: as §1

[1] = test system: P. aeruginosa ATCCCRM-9027; experiment: as above; type: cell-based, Pseudomonas aeruginosa
Method in brief: as §1

P. aeruginosa ATCC 9721 = experiment: as above; type: cell-based, Pseudomonas aeruginosa
Method in brief: as §1

P. aeruginosa ATCC27853 = experiment: as above; type: cell-based, Pseudomonas aeruginosa
Method in brief: as §1

P. aeruginosa ATCC10145 = experiment: as above; type: cell-based, Pseudomonas aeruginosa
Method in brief: as §1

[2] = Pharmacokinetic and urinary clearance studies in rats; type: in vivo
Protocol: Drug solutions were prepared at 4 mg/mL in Normal Saline and the pH adjusted to 6-7 by adding the appropriate volume of 0.1 M H2SO4 or 4.2% NaHCO3. The solutions were filter-sterilized and stored at −80° C. before use. On the day of the experiment, drug solutions were diluted to 1 mg/mL with sterile Normal Saline.
Groups of 3 male Sprague Dawley rats were acclimatised for a minimum of 4 days before the study. Rats were anesthetized using isofluorane and a cannula was inserted into the jugular vein. One day after surgery, rats were dosed with an intravenous bolus injection of the solution at 1 mg/kg through the cannula, followed by washing with Normal Saline. Blood was collected manually through the cannula prior to administration of the compound and at 0.08, 0.25, 0.5, 1, 3, 6, 8 and 24 h thereafter. Plasma was harvested by centrifugation immediately after blood collection. Twenty-four hour urine samples were collected prior to and after administration of the compound in 0-4 h, 4-6 h, and 6-24 h intervals. Plasma and urine samples were frozen at −20° C.
Determination of the plasma and urine concentrations of the drug was performed by Liquid Chromatography Mass Spectrometry (LC-MS/MS). Before analysis the plasma and urine samples were prepared as follows. Plasma samples were thawed on the day of analysis and mixed with 3 volumes of acetonitrile containing 0.1% (v/v) formic acid and 100 ng/mL of internal standard. After centrifugation, supernatants were transferred to a 96-well plate and diluted 1:1 with water ready for analysis by LC-MS/MS. Urine samples were purified by solid-phase extraction (SPE) on Oasis HLB cartridges (Waters, UK) eluting with 100% methanol. An aliquot was transferred to a 96 well plate and diluted 1:1 with water before addition of internal standard solution, ready for analysis by LC-MS/MS.
The pharmacokinetic parameters were determined by non-compartmental analysis using WinNonLin v5.3. The urinary recovery was recorded as the percentage of intact drug recovered in the urine for the first 24 h after injection.

[3] = design: species or system rats; settings: rat, in vivo, 8 mg/kg
Protocol: Colistin and the example compounds were prepared in saline. Compounds were introduced via the jugular canula twice a day 7 hours apart for seven days. […] The dose regimen is set out in Table 8 below.

K. pneumoniae NCTC8172 = experiment: MIC susceptibility testing, broth microdilution in CaMHB; type: cell-based, Klebsiella pneumoniae
Method in brief: as §1

[4] = test system: K. pneumoniae ATCCBAA-1706; experiment: as above; type: cell-based, Klebsiella pneumoniae; settings: Table 4
Method in brief: as §1

K. pneumoniae NCTC7427 = experiment: as above; type: cell-based, Klebsiella pneumoniae
Method in brief: as §1

K. pneumoniae ATCC 4352 = experiment: as above; type: cell-based, Klebsiella pneumoniae
Method in brief: as §1

[5] = Table 4A, different batches of cation-adjusted Muller-Hinton broth
[6] = P. aeruginosa AATCCRM 9027, Table 4A, different batches of cation-adjusted Muller-Hinton broth
[7] = P. aeruginosa ATCCCRM-9027, Table 4
[8] = P. aeruginosa ATCC 9721, Table 4
[9] = P. aeruginosa ATCC9721, Table 4A, different batches of cation-adjusted Muller-Hinton broth
[10] = male, Sprague Dawley, rat, in vivo, iv, 1 mg/kg
[11] = K. pneumoniae ATCC 4352, Table 4
[12] = K. pneumoniae ATCC4352, Table 4A, different batches of cation-adjusted Muller-Hinton broth
[13] = male Sprague Dawley rats, intravenous bolus 1 mg/kg
[14] = male Sprague Dawley rats, intravenous bolus 1 mg/kg, plasma

Row | Molecule | MIC (E. coli ATCC700928; Table 4) [micrograms/mL] | MIC (E. coli ATCC700928; [5]) [micrograms/mL] | MIC (E. coli NCTC9001; Table 4) [micrograms/mL] | MIC (E. coli NCTC9001; [5]) [micrograms/mL] | MIC (E. coli ATCC25922; Table 4) [micrograms/mL] | MIC (E. coli ATCC25922; [5]) [micrograms/mL] | MIC (E. coli NCTC12900; [5]) [micrograms/mL] | MIC (A. baumannii ATCC19606; Table 4) [micrograms/mL] | MIC (A. baumannii ATCC19606; [5]) [micrograms/mL] | MIC (A. baumannii NCTC7844; Table 4) [micrograms/mL] | MIC (A. baumannii NCTC7844; [5]) [micrograms/mL] | MIC [1, 6] [micrograms/mL] | MIC [1, 7] [micrograms/mL] | MIC (P. aeruginosa ATCC 9721; [8]) [micrograms/mL] | MIC (P. aeruginosa ATCC 9721; [9]) [micrograms/mL] | MIC (P. aeruginosa ATCC27853; Table 4) [micrograms/mL] | MIC (P. aeruginosa ATCC27853; [5]) [micrograms/mL] | MIC (P. aeruginosa ATCC10145; Table 4) [micrograms/mL] | MIC (P. aeruginosa ATCC10145; [5]) [micrograms/mL] | MIC (K. pneumoniae NCTC8172; [5]) [micrograms/mL] | other results
1 | CC(C)C[C@@H]1NC(=O)[C@@H](Cc2ccccc2)NC(=O)[C@H](CCN)NC(=O)[C@@H](NC(=O)[C@H](CCN)NC(=O)[C@@H](NC(=O)CCCN)[C@@H](C)O)CCNC(=O)[C@H]([C@@H](C)O)NC(=O)[C@H](CCN)NC(=O)[C@H](CCN)NC1=O [Example 6, 4-Aminobutanoyl Polymyxin B Nonapeptide, Sulphate Salt] (H-[GABA]T[Dab][Dab][Dab][dF]L[Dab][Dab]T; lactam 4-C) | 0.125 | 2 | 1 | 8 | 0.5 | 2 | 8 | 0.25 | 4 | 2 | 2 | 0.25 | 0.125 | 0.125 | 0.125 | 0.25 | 0.25 | 0.25 | 0.5 | 16 | MIC (E. coli NCTC12900; Table 4): 2 micrograms/mL; AUC(0-inf) [2, 10]: 2620 ng·h/mL; Cmax [2, 10]: 3580 ng/mL; Vd [2, 10]: 0.289 L/kg; clearance [2, 10]: 6.43 mL/min/kg; half-life [2, 10]: 0.56 h; levels of the renal biomarker NAG in urine compared to Colistin at the same dose regimen [3]: significantly reduced levels; levels of the renal biomarker albumin in urine compared to Colistin at the same dose regimen [3]: significantly reduced levels; levels of the renal biomarker cystatin C in urine compared to Colistin at the same dose regimen [3]: significantly reduced levels; MIC [4]: 0.25 micrograms/mL; MIC (K. pneumoniae NCTC7427; Table 4): 0.125 micrograms/mL; MIC (K. pneumoniae NCTC7427; [5]): 0.125 micrograms/mL; MIC (K. pneumoniae ATCC 4352; [11]): 0.125 micrograms/mL; MIC (K. pneumoniae ATCC 4352; [12]): 1 micrograms/mL
2 | CCCCCCC(O)C(=O)N[C@H](C(=O)N[C@@H](CCN)C(=O)N[C@H]1CCNC(=O)[C@H](C(C)O)NC(=O)[C@H](CCN)NC(=O)[C@H](CCN)NC(=O)[C@H](CC(C)C)NC(=O)[C@@H](Cc2ccccc2)NC(=O)[C@H](CCN)NC1=O)C(C)O (stereo partly drawn) [Example 2, [2(R,S)-2-Hydroxyoctanoyl] Polymyxin B Nonapeptide, Sulphate Salt] (X1-[Thr(3ξ)][Dab][Dab][Dab][dF]L[Dab][Dab][Thr(3ξ)]; lactam 3-C) | 0.25 | 0.5 | 0.25 | 2 | 1 | 2 | 8 | 2 | 2 | 2 | 4 | 0.5 | 0.25 | 2 | 0.5 | 0.5 | 0.5 | 1 | 1 | 4 | MIC (E. coli NCTC12900; Table 4): 0.25 micrograms/mL; AUC(0-inf) [2, 10]: 4010 ng·h/mL; Cmax [2, 10]: 2400 ng/mL; Vd [2, 10]: 0.488 L/kg; clearance [2, 10]: 4.18 mL/min/kg; half-life [2, 10]: 1.34 h; levels of the renal biomarker NAG in urine compared to Colistin at the same dose regimen [3]: significantly reduced levels; levels of the renal biomarker albumin in urine compared to Colistin at the same dose regimen [3]: significantly reduced levels; levels of the renal biomarker cystatin C in urine compared to Colistin at the same dose regimen [3]: significantly reduced levels; MIC (K. pneumoniae NCTC8172; Table 4): 4 micrograms/mL; MIC [4]: 0.5 micrograms/mL; MIC (K. pneumoniae NCTC7427; Table 4): 4 micrograms/mL; MIC (K. pneumoniae NCTC7427; [5]): 0.5 micrograms/mL; MIC (K. pneumoniae ATCC 4352; [11]): 0.5 micrograms/mL; MIC (K. pneumoniae ATCC 4352; [12]): 1 micrograms/mL
3 | Polymyxin B [reference compound] | 0.25 | 0.25 | 0.25 | 0.25 | 0.5 | 1 | 0.25 | 0.5 | 0.125 | 0.25 | 0.25 | 0.25 | 0.25 | 0.5 | 0.125 | 0.5 | 0.5 | 0.5 | 1 | 1 | CL (clearance) [2, 13]: 7.15 mL/min/kg; Vd [2, 13]: 1.12 L/kg; AUC(0-inf) [2, 14]: 2372 ng·h/mL; Cmax [2, 14]: 1455 ng/mL; t1/2 [2, 14]: 1.94 h; Urinary recovery ([2]; male Sprague Dawley rats, intravenous bolus 1 mg/kg, intact drug in urine in first 24 h): 0.3 % dose; MIC (K. pneumoniae NCTC8172; Table 4): 0.5 micrograms/mL; MIC [4]: 0.25 micrograms/mL; MIC (K. pneumoniae NCTC7427; Table 4): 0.25 micrograms/mL; MIC (K. pneumoniae NCTC7427; [5]): 0.25 micrograms/mL; MIC (K. pneumoniae ATCC 4352; [11]): 0.5 micrograms/mL; MIC (K. pneumoniae ATCC 4352; [12]): 0.25 micrograms/mL
